# Data: US9302999B2, “Substituted triazoles as herbicides” (E. I. DU PONT DE NEMOURS AND COMPANY, priority 2012, dated 2016)
# Read-outs that look alike come from different tables or passages of the source.
# Columns and labels:
# Assay type in all cases: in vivo
# [1] = tested on: winter wheat (Triticum aestivum); assay: Test C pre-/postemergence: winter wheat
# Outline: (§1)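 Preemergence on seeds in loam/sand, postemergence on 2–18 cm (1–4-leaf) plants in peat-based medium; compounds in non-phytotoxic solvent with surfactant. After 13–15 days in greenhouse, visual rating versus controls, 0 (no effect) to 100 (complete control).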
# [2] = tested on: wild oat (Avena fatua); assay: Test C pre-/postemergence: wild oat
# Excerpt: (§2) Seeds of plant species selected from blackgrass (Alopecurus myosuroides), bromegrass, downy (downy bromegrass, Bromus tectorum), foxtail, green (green foxtail, Setaria viridis), ryegrass, Italian (Italian ryegrass, Lolium multiflorum), winter wheat (Triticum aestivum), wild oat (Avena fatua), galium (catchweed bedstraw, Galium aparine), bermudagrass (Cynodon dactylon), surinam grass (Brachiaria decumbens), cocklebur (common cocklebur, Xanthium strumarium), corn (Zea mays), large crabgrass (Digitaria sanguinalis), woolly cupgrass (Eriochloa villosa), foxtail, giant (giant foxtail, Setaria faberii), goosegrass (Eleusine indica), johnsongrass (Sorghum halepense), kochia (Kochia scoparia), lambsquarters (Chenopodium album), morningglory (Ipomoea coccinea), nightshade (eastern black nightshade, Solanum ptycanthum), nutsedge, yellow (yellow nutsedge, Cyperus esculentus), pigweed (Amaranthus retroflexus), ragweed (common ragweed, Ambrosia elation), soybean (Glycine max), common (oilseed) sunflower (Helianthus annuus), Russian thistle (Salsola kali) and velvetleaf (Abutilon theophrasti) were planted into a blend of loam soil and sand and treated preemergence with test chemicals formulated in a non-phytotoxic solvent mixture which included a surfactant.
# (§3) At the same time, plants selected from these crop and weed species and also barley (winter barley, Hordeum vulgare), canarygrass (Phalaris minor), chickweed (common chickweed, Stellaria media) windgrass (Apera spica-venti) and deadnettle (henbit deadnettle, Lamium amplexicaule) were planted in pots containing Redi-Earth® planting medium (Scotts Company, 14111 Scottslawn Road, Marysville, Ohio 43041) comprising spaghnum peat moss, vermiculite, wetting agent and starter nutrients and treated with postemergence applications of test chemicals formulated in the same manner. Plants ranged in height from 2 to 18 cm (1- to 4-leaf stage) for postemergence treatments.
# (§4) Treated plants and controls were maintained in a greenhouse for 13 to 15 days, after which time all species were compared to controls and visually evaluated. Plant response ratings, summarized in Table C, are based on a scale of 0 to 100 where 0 is no effect and 100 is complete control. A dash (-) response means no test result.
# [3] = tested on: corn (Zea mays); assay: Test A pre-/postemergence: corn; conditions: Zea mays, 240 h
# Outline: (§5)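 Injury was scored visually on a 0 (no effect) to 100 (complete control) scale versus untreated controls roughly ten days after treatment in the greenhouse. Compounds, formulated in surfactant-containing non-phytotoxic solvent, went on as soil-directed preemergence spray or postemergence to one- to two-leaf plants 2–10 cm tall.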
# [4] = tested on: crabgrass, large (large crabgrass, Digitaria sanguinalis); assay: Test A pre-/postemergence: crabgrass, large; conditions: Digitaria sanguinalis, 240 h; for pest or weed control at 125 g/ha: 125 g ai/ha; for pest or weed control at 500 g/ha: 500 g ai/ha
# Outline: as §5
# [5] = tested on: ragweed (common ragweed, Ambrosia elation); assay: Test C pre-/postemergence: ragweed
# Excerpt: as §2, §3, §4
# [6] = tested on: kochia (Kochia scoparia); assay: Test C pre-/postemergence: kochia
# Excerpt: as §2, §3, §4
# [7] = tested on: velvetleaf (Abutilon theophrasti); assay: Test C pre-/postemergence: velvetleaf
# Outline: as §1
# [8] = tested on: foxtail, giant (giant foxtail, Setaria faberii); assay: Test A pre-/postemergence: foxtail, giant; conditions: Setaria faberi, 240 h; for pest or weed control at 125 g/ha: 125 g ai/ha; for pest or weed control at 500 g/ha: 500 g ai/ha
# Outline: as §5
# [9] = tested on: foxtail, giant (giant foxtail, Setaria faberii); assay: Test C pre-/postemergence: foxtail, giant
# Outline: as §1
# [10] = tested on: large crabgrass (Digitaria sanguinalis); assay: Test C pre-/postemergence: large crabgrass
# Outline: as §1
# [11] = tested on: pigweed (Amaranthus retroflexus); assay: Test C pre-/postemergence: pigweed
# Outline: as §1
# [12] = tested on: soybean (Glycine max); assay: Test C pre-/postemergence: soybean
# Outline: as §1
# [13] = Postemergence, 31 g ai/ha, scale 0 to 100 (0 no effect, 100 complete control)
# [14] = Postemergence, 62 g ai/ha, scale 0 to 100 (0 no effect, 100 complete control)
# [15] = Postemergence, 125 g ai/ha, scale 0 to 100, 0 no effect, 100 complete control
# [16] = Postemergence, 250 g ai/ha, scale 0 to 100
# [17] = Preemergence, 31 g ai/ha, scale of 0 to 100, 0 is no effect, 100 is complete control
# [18] = Preemergence, 62 g ai/ha, scale of 0 to 100, 0 is no effect, 100 is complete control
# [19] = Preemergence, 125 g ai/ha, scale 0 to 100, 0 no effect, 100 complete control
# [20] = Preemergence, 250 g ai/ha, scale 0 to 100, 0 no effect, 100 complete control
smiles,measurement,setting,value
"Cc1nn(-c2ccc(C(F)(F)F)cc2)nc1Cc1ccnc(C(F)(F)F)c1 [Compound 47, 4-[[5-methyl-2-[4-(trifluoromethyl)phenyl]-2H-1,2,3-triazol-4-yl]methyl]-2-(trifluoromethyl)pyridine]","Plant response rating, Wheat",[1]; [13],15
same,"Plant response rating, Wheat",[1]; [14],35
same,"Plant response rating, Wheat",[1]; [15],45
same,"Plant response rating, Wheat",[1]; [16],50
same,"Plant response rating, Wheat",[1]; [17],0
same,"Plant response rating, Wheat",[1]; [18],5
same,"Plant response rating, Wheat",[1]; [19],35
same,"Plant response rating, Wheat",[1]; [20],40
same,"Plant response rating, Oat, Wild",[2]; [13],35
same,"Plant response rating, Oat, Wild",[2]; [15],85
same,"Plant response rating, Oat, Wild",[2]; [16],90
same,"Plant response rating, Oat, Wild",[2]; [17],80
same,"Plant response rating, Oat, Wild",[2]; [18],90
same,"Plant response rating, Oat, Wild",[2]; [19],90
same,"Plant response rating, Oat, Wild",[2]; [20],100
same,plant injury at 125 g/ha,"[3]; post-emergence, Postemergence, 125 g ai/ha, 0 to 100 scale, 0 is no effect, 100 is complete control, read-out: Corn plant response rating",20%
same,plant injury at 500 g/ha,"[3]; post-emergence, Postemergence, 500 g ai/ha, visual rating on 0 to 100 scale (0 no effect, 100 complete control), approximately ten days, read-out: Corn plant response rating",40%
same,"Corn plant response rating (crop injury, 0 = no effect, 100 = complete kill) at 125 g/ha","[3]; pre-emergence, Preemergence, 125 g ai/ha, 0 to 100 scale (0 no effect, 100 complete control)",20%
same,"Corn plant response rating (crop injury, 0 = no effect, 100 = complete kill) at 500 g/ha","[3]; pre-emergence, Preemergence, 500 g ai/ha, 0 to 100 scale, 0 is no effect, 100 is complete control",30%
same,pest or weed control at 125 g/ha,"[4]; post-emergence, Postemergence, 0 to 100 scale, 0 is no effect, 100 is complete control, read-out: Crabgrass, Large plant response rating",80%
same,pest or weed control at 500 g/ha,"[4]; post-emergence, Postemergence, visual rating on 0 to 100 scale (0 no effect, 100 complete control), approximately ten days, read-out: Crabgrass, Large plant response rating",90%
same,pest or weed control at 125 g/ha,"[4]; pre-emergence, Preemergence, 0 to 100 scale (0 no effect, 100 complete control), read-out: Plant response rating, Crabgrass, Large",100%
same,pest or weed control at 500 g/ha,"[4]; pre-emergence, Preemergence, 0 to 100 scale, 0 is no effect, 100 is complete control, read-out: Plant response rating, Crabgrass, Large",100%
same,"Plant response rating, Ragweed",[5]; [13],45
same,"Plant response rating, Ragweed",[5]; [14],65
same,"Plant response rating, Ragweed",[5]; [15],75
same,"Plant response rating, Ragweed",[5]; [16],95
same,"Plant response rating, Ragweed",[5]; [17],5
same,"Plant response rating, Ragweed",[5]; [18],15
same,"Plant response rating, Ragweed",[5]; [19],45
same,"Plant response rating, Ragweed",[5]; [20],80
same,"Plant response rating, Kochia",[6]; [13],65
same,"Plant response rating, Kochia",[6]; [17],85
same,"Plant response rating, Kochia",[6]; [18],90
same,"Plant response rating, Kochia",[6]; [19],98
same,"Plant response rating, Kochia",[6]; [20],98
same,"Plant response rating, Velvetleaf",[7]; [13],65
same,"Plant response rating, Velvetleaf",[7]; [14],70
same,"Plant response rating, Velvetleaf",[7]; [15],80
same,"Plant response rating, Velvetleaf",[7]; [16],90
same,"Plant response rating, Velvetleaf",[7]; [17],45
same,"Plant response rating, Velvetleaf",[7]; [18],60
same,"Plant response rating, Velvetleaf",[7]; [19],90
same,"Plant response rating, Velvetleaf",[7]; [20],100
same,pest or weed control at 125 g/ha,"[8]; post-emergence, Postemergence, 0 to 100 scale, 0 is no effect, 100 is complete control, read-out: Foxtail, Giant plant response rating",80%
same,pest or weed control at 500 g/ha,"[8]; post-emergence, Postemergence, visual rating on 0 to 100 scale (0 no effect, 100 complete control), approximately ten days, read-out: Foxtail, Giant plant response rating",90%
same,pest or weed control at 125 g/ha,"[8]; pre-emergence, Preemergence, 0 to 100 scale (0 no effect, 100 complete control), read-out: Plant response rating, Foxtail, Giant",100%
same,pest or weed control at 500 g/ha,"[8]; pre-emergence, Preemergence, 0 to 100 scale, 0 is no effect, 100 is complete control, read-out: Plant response rating, Foxtail, Giant",100%
same,"Plant response rating, Foxtail, Giant",[9]; [13],65
same,"Plant response rating, Foxtail, Giant",[9]; [14],65
same,"Plant response rating, Foxtail, Giant",[9]; [15],80
same,"Plant response rating, Foxtail, Giant",[9]; [16],98
same,"Plant response rating, Foxtail, Giant",[9]; [17],95
same,"Plant response rating, Foxtail, Giant",[9]; [18],100
same,"Plant response rating, Foxtail, Giant",[9]; [19],100
same,"Plant response rating, Foxtail, Giant",[9]; [20],100
same,"Plant response rating, Crabgrass, Large",[10]; [13],5
same,"Plant response rating, Crabgrass, Large",[10]; [14],15
same,"Plant response rating, Crabgrass, Large",[10]; [15],35
same,"Plant response rating, Crabgrass, Large",[10]; [16],50
same,"Plant response rating, Crabgrass, Large",[10]; [17],45
same,"Plant response rating, Crabgrass, Large",[10]; [18],98
same,"Plant response rating, Crabgrass, Large",[10]; [19],100
same,"Plant response rating, Crabgrass, Large",[10]; [20],100
same,"Plant response rating, Pigweed",[11]; [13],100
same,"Plant response rating, Pigweed",[11]; [14],100
same,"Plant response rating, Pigweed",[11]; [15],100
same,"Plant response rating, Pigweed",[11]; [16],100
same,"Plant response rating, Pigweed",[11]; [17],100
same,"Plant response rating, Pigweed",[11]; [18],100
same,"Plant response rating, Pigweed",[11]; [19],100
same,"Plant response rating, Pigweed",[11]; [20],100
same,"Plant response rating, Soybean",[12]; [13],40
same,"Plant response rating, Soybean",[12]; [14],70
same,"Plant response rating, Soybean",[12]; [15],75
same,"Plant response rating, Soybean",[12]; [16],75
same,"Plant response rating, Soybean",[12]; [17],0
same,"Plant response rating, Soybean",[12]; [18],0
same,"Plant response rating, Soybean",[12]; [19],5
same,"Plant response rating, Soybean",[12]; [20],35
